Experiment: Stability to intense pulsed light (IPL) flashes, monitored by absorbance spectrum
Assay type: physicochemical
Settings: ten pulses at maximum fluence of the flash lamp, visible spectral range
Protocol: A small study, on one subject, was conducted to see whether encapsulation of the sodium-copper-chlorophyllin within the liposome enhanced skin tanning, i.e., increased penetration and bioavailability of copper to the melanin-producing enzyme, […]. […] Three areas on the back received 1.0 MED simulated solar radiation: one area had received no treatment, one area had been pre-treated with the gel without liposome and the third area was treated with the liposome gel. An expert blinded grader scored the resulting skin tanning at 10 days after irradiation, using the Degree of Tanning scale 0 to 10 (darkest). […] Controlled dissociation of the sodium-copper-chlorophyllin complex is possible, in part because of the high stability of this complex. Normally, inorganic and organic copper salts, including copper-peptides, are not very stable with regard to binding copper. The inherent stability and lack of reactivity of sodium-copper-chlorophyllin is essential for this process to work successfully. […] Stability was monitored by measurement of the dye's full absorbance spectrum, since degradation of the dye would be detectable as changes in the absorbance spectrum.

absorbance spectrum after IPL flashes: remained unchanged
Substance: sodium-copper-chlorophyllin [sodium-copper-chlorphyllin]
